Values quoted from earlier work in patent publication US7402577B2, “Androstane 17-beta-carboxamides as androgen receptor modulators” (priority 2001, dated 2008).

How the values were obtained:
spinal BMD = settings: after 7 years of treatment
fractures = settings: postmenopausal osteoporotic women, median of 22 months of treatment

Compound	increase in spinal BMD (spinal BMD)	reduction in nonvertebral fractures (fractures)	reduction in spine fractures (fractures)
NCCCC(O)(P(=O)([O-])O)P(=O)(O)O.O.O.O.[Na+] [alendronate, (4-amino-1-hydroxybutylidene)-bis-phosphonate monosodium trihydrate]	≤ 11%	–	–
hPTH(1-34): human parathyroid hormone 1-34 fragment (SVSEIQLMHNLGKHLNSMERVEWLRKKLQDVHNF; Parathyroid hormone; UniProt P01270 32-65, looked up, fragment)	–	54%	≥ 65%
